# Like-named read-outs stand apart in the source and are kept apart here.
# Columns and labels:
# [1] = system: ERK5 (HA-ERK5 wt activated by EGFP-MEK5D, MEF2D-Gal4/Gal4-Luc reporter) in HEK293 cells; test: Dual-luciferase reporter assay (ERK5 reporter), reverse-transfected HEK293 cells; details: Homo sapiens, HEK293, read-out: ERK 5 Reporter Assay
# Method: Trypsinizing of Adherent Cell Colonies
# Cells were regularly passaged in order to maintain optimum colony sizes on plates. In order to do this, and to harvest cells for use in the dual-luciferase reporter assay, adherent cells were lifted from tissue culture dishes. Cell media was removed via aspiration, and the cell monolayer was washed with phosphate buffered saline (PBS) solution (10 mL), which was then aspirated.
# Reverse Transfection of HEK293 Cells
# Preparation of EGFP Control (C3) Working Solution (for 1×96 Well Plate)
# Preparation of HEK293 Cells for Reverse Transfection
# Trypsinized HEK293 cells were re-suspended in 19 mL of fresh cell media and counted using haemocytometry. Cells were then diluted with fresh cell media to achieve a final cell concentration of 2×10^5 cells/mL. 1237.5 μL and 7425 μL of this cell media was added to the C3 and 5D working solutions respectively. 100 μL of the transfected cells were then aliquoted into the appropriate wells in a 96-well opaque sided tissue culture plate, and incubated at 37° C. for 6 h.
# Addition of Compounds to HEK293 Cells
# 4 compounds was assayed per 96-well plate. For each compound, 1 mL of growth media was added to eight 1.5 mL Eppendorf® tubes. 6 μL of DMSO was added to two tubes for C3 and blank 5D wells, and 6 μL of the relevant compound stock solution was added to the 6 remaining tubes. […] Solutions of drug in media were thoroughly mixed, and 100 μL of the relevant compound was transferred (in triplicate) to the 96-well plate containing transfected HEK293 cells using an electronic multichannel pipette with variable tip spacing. Sealed plates were incubated at 37° C. for 24 h. Final compound concentrations were as follows; 30 μM, 10 μM, 3 μM, 1 μM and 0.3 μM.
# 15 mL of 1× passive lysis buffer (PLB) was prepared using 5×PLB (Dual-Luciferase Reporter Assay System, Promega® E1960), diluting with H2O. Assay plates prepared were removed from the incubator and the growth media removed by aspiration.
# ERK5 = molecular target: T1, ERK5 (Homo sapiens, UniProt Q13164); test: ERK5 IMAP assay (fluorescence polarisation); format: biochemical
# T1 construct: made in house
# [2] = system: ERK5 autophosphorylation in HeLa cells; test: EGF-stimulated HeLa cell assay (ERK5 autophosphorylation, Western blot); format: cell-based; details: Homo sapiens, average where more than one data point
# Method: EGF-Stimulated HeLa Cell Assay
# HeLa cells were serum starved overnight followed by treatment with ERK5 inhibitors for 1 hr. Cells were then stimulated with 100 ng/ml EGF for 10 or 15 min. The cells were harvested and lysed at 4° C. for 5-10 min in Laemmli buffer containing Halt protease and […] (Pierce). The lysates were boiled for 10 min at 100° C. Twenty microliters sample was run on 6% or 7.5% Tris-glycine gels and transferred to nitrocellulose. […] The IC50 was calculated from densitometry of top bands.
# [3] = system: HA-ERK5-ΔP493 (MEK5D-activated, MEF2D-Gal4/Gal4-Luc reporter) in HeLa cells; test: Truncated dual-luciferase reporter assay, HeLa forward transfection; format: cell-based; details: Homo sapiens, value with spread
# Method: (§1) Truncated Dual-Luciferase Reporter Assay
# (§2) HEK293T and HeLa Forward Transfection
# HEK293T or HeLa cells were seeded in 96-well luminescence (white) plates (1.68×10^4/well in 84 μl standard culture medium) and incubated overnight at 37° C. in a humidified atmosphere of 5% CO2 in air. Plasmid DNA mastermix containing MEF2D-Gal4 (0.25 μg/μl), Gal4-Luc (1.25 μg/μl) and Renilla luciferase (0.1 μg/μl) was prepared in sterile distilled water. Constitutively-active, EGFP-tagged MEK5 (EGFP-MEK5D; 0.5 μg/μl), an EGFP-tagged construct containing no MEK5D (EGFP-C3; 0.5 μg/μl), and HA-tagged ERK5 with C-terminal truncation (HA-ERK5-ΔP493; 0.51 μg/μl) were diluted separately in sterile distilled water. Plasmid DNA and Lipofectamine 2000 (Invitrogen) were separately diluted in Opti-MEM growth media (reduced serum medium, Invitrogen), and incubated at room temperature for 5 min. Plasmid DNA (Tube A) and Lipofectamine 2000 (Tube B) were then combined and incubated for 20 min at room temperature to complex. […]
# (§3) Cell Lysis and Luciferase Quantification
# After 24 h incubation in the absence (control) or presence of potential inhibitor, the culture medium was aspirated and cells lysed in 20 μl 1× passive lysis buffer (Dual-Luciferase Reporter Assay System, Promega) for a minimum of 15 min with agitation. […] Cellular inhibition of ERK5 was quantified using the Dual-Luciferase Reporter Assay System (Promega). […] Luciferase reagent (50 μl/well) was added immediately before luminescence detection using a FLUOstar Omega plate reader (BMG Labtech). Stop and Glo reagent (50 μl/well) was subsequently added, and the Renilla luciferase signal (transfection efficiency control) quantified.
# The ERK5-specific signalling activity was calculated by subtraction of the EGFP-C3 luciferase signal from the EGFP-MEK5D-induced luminescence. Luminescence in the absence of potential ERK5 inhibitor (DMSO control) was taken as 100% ERK5 activity. […]
# [4] = system: HA-ERK5-ΔP493 (MEK5D-activated, MEF2D-Gal4/Gal4-Luc reporter) in HEK293T cells; test: Truncated dual-luciferase reporter assay, HEK293T forward transfection; format: cell-based; details: Homo sapiens, HEK-293T, average where more than one data point, read-out: Truncated ERK 5 Reporter Assay
# Method: as §1, §2
# Constitutively-active, EGFP-tagged MEK5 (EGFP-MEK5D; 0.5 μg/μl), an EGFP-tagged construct containing no MEK5D (EGFP-C3; 0.5 μg/μl), and HA-tagged ERK5 with C-terminal truncation (HA-ERK5-ΔP493; 0.51 μg/μl) were diluted separately in sterile distilled water. Plasmid DNA and Lipofectamine 2000 (Invitrogen) were separately diluted in Opti-MEM growth media (reduced serum medium, Invitrogen), and incubated at room temperature for 5 min. Plasmid DNA (Tube A) and Lipofectamine 2000 (Tube B) were then combined and incubated for 20 min at room temperature to complex. Cells were then transfected by addition of 16 μl of the respective transfection mixture: 3 wells with EGFP-C3-containing (control) and 21 wells with MEK5D-containing transfection mixture (final volume, 100 μl). Cells were subsequently incubated for 4 h at 37° prior to addition of potential ERK5-inhibitory compounds.
# Addition of Compounds to ERK5-Transfected HEK293T or HeLa Cells
# Potential ERK5-inhibitory compounds were prepared as a 2× solution by addition of 2 μl compound (or DMSO as control) to 1 ml standard culture medium. Compounds were tested in triplicate at a concentration range of 0.003 μM, 0.01 μM, 0.03 μM, 0.1 μM, 0.3 μM and 1 μM (or 0.03 μM, 0.1 μM, 0.3 μM, 1 μM, 3 μM and 10 μM for BIX02189) by addition of 100 μl 2× solution to 100 μl transfected cells (final DMSO, 0.1% v/v). Cells were incubated for 24 h at 37° C.
# as §3
# After 24 h incubation in the absence (control) or presence of potential inhibitor, the culture medium was aspirated and cells lysed in 20 μl 1× passive lysis buffer (Dual-Luciferase Reporter Assay System, Promega) for a minimum of 15 min with agitation. Lysates were further processed immediately or stored at −80° C. Cellular inhibition of ERK5 was quantified using the Dual-Luciferase Reporter Assay System (Promega). Luciferase assay buffer/Luciferase assay substrate and Stop and Glo assay buffer/Stop and Glo substrate were prepared according to the manufacturer's instructions. Luciferase reagent (50 μl/well) was added immediately before luminescence detection using a FLUOstar Omega plate reader (BMG Labtech). Stop and Glo reagent (50 μl/well) was subsequently added, and the Renilla luciferase signal (transfection efficiency control) quantified.
# The ERK5-specific signalling activity was calculated by subtraction of the EGFP-C3 luciferase signal from the EGFP-MEK5D-induced luminescence. Luminescence in the absence of potential ERK5 inhibitor (DMSO control) was taken as 100% ERK5 activity. […] Unless stated otherwise, data are mean±standard deviation of three independent experiments.
# [5] = system: tumour cell lines and endothelial cells; details: cited from earlier work
# [6] = cited from earlier work
# [7] = system: bFGF-induced angiogenesis; details: matrigel plug; cited from earlier work
# human and murine tumour = details: cited from earlier work
# [8] = average (e.g. geometric mean) where more than one data point, read-out: ERK5 IC50
# [9] = value ± spread, second part of table, read-out: ERK5 IMAP IC50
# T1 sequence (Q13164 whole entry): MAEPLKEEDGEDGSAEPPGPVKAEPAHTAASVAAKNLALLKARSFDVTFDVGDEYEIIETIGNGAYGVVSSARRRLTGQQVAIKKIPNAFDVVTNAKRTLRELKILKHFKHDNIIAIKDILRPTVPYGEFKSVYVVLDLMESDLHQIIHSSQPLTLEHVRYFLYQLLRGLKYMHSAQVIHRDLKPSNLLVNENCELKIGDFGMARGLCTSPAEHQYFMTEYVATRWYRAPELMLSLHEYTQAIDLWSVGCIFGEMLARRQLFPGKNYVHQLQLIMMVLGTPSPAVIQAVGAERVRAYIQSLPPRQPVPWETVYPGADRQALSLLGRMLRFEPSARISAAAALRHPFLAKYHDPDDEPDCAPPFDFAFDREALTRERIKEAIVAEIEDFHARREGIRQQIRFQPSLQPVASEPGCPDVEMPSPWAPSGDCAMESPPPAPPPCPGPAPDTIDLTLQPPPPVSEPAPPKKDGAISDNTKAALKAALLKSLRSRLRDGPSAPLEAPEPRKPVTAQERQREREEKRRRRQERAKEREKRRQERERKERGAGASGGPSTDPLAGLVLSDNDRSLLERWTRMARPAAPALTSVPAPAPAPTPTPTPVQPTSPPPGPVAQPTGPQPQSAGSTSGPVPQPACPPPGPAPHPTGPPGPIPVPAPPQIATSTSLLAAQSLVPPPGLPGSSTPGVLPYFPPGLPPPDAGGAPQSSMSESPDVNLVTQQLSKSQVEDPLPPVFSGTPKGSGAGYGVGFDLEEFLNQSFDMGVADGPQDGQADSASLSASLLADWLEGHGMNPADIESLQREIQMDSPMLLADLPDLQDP
SMILES,IC50 (ERK5; [8]) [nM],IC50 [2] [nM],IC50 (ERK5; [9]) [nM],IC50 [3] [nM],IC50 [1] [nM],other results
"COc1ccc(Cl)c(C(=O)c2c[nH]c(C(=O)Nc3cccnc3)c2)c1F [Example 72, 4-(6-chloro-2-fluoro-3-methoxybenzoyl)-N-(pyridin-3-yl)-1H-pyrrole-2-carboxamide]",90.8,1900,–,–,2980,–
"CCN(CC)CCNc1ncc(NC(=O)c2cc(C(=O)c3c(Cl)ccc(Cl)c3F)c[nH]2)cn1 [Example 100, 4-(3,6-Dichloro-2-fluorobenzoyl)-N-(2-((2-(diethylamino)ethyl)amino)pyrimidin-5-yl)-1H-pyrrole-2-carboxamide]",19.3,490,–,–,–,IC50 [4]: 151 nM
"COc1ccc(Cl)c(C(=O)c2c[nH]c(C(=O)NC3CCN(C)CC3)c2)c1F [Example 70, 4-(6-chloro-2-fluoro-3-methoxybenzoyl)-N-(1-methylpiperidin-4-yl)-1H-pyrrole-2-carboxamide]",57.9,1700,–,–,477,–
CCOc1cc(N2CCC(O)CC2)ccc1Nc1ncc2c(n1)N(C)c1ccccc1C(=O)N2C [XMD8-92],–,–,–,–,–,anti-proliferative activity [5]: modest anti-proliferative activity; tolerability in mice [6]: well tolerated; blood vessel formation [7]: completely abrogated blood vessel formation; tumour growth (human and murine tumour; human and murine tumours in mice): pronounced retardation of both human and murine tumour growth; inhibition of tumour ERK5 (human and murine tumour; mice): inhibited tumour ERK5

# Second part, led by results:
IC50 (ERK5; [8]) [nM],IC50 [2] [nM],IC50 (ERK5; [9]) [nM],IC50 [3] [nM],SMILES,IC50 [1] [nM],other results
–,–,1560 ± 50,671,"Cn1cc(NC(=O)c2cc(C(=O)c3c(F)cccc3F)c[nH]2)cn1 [Example 285, 4-(2,6-Difluorobenzoyl)-N-(1-methyl-1H-pyrazol-4-yl)-1H-pyrrole-2-carboxamide]",–,–
65.6,190,–,–,"O=C(Nc1cccnc1)c1cc(C(=O)c2c(Cl)ccc(Cl)c2F)c[nH]1 [Example 172, 4-(3,6-Dichloro-2-fluorobenzoyl)-N-(pyridin-3-yl)-1H-pyrrole-2-carboxamide]",598,–
–,–,7070 ± 20,2480,"Cc1cccc(F)c1C(=O)c1c[nH]c(C(=O)Nc2cnn(C)c2)c1 [Example 286, 4-(2-Fluoro-6-methylbenzoyl)-N-(1-methyl-1H-pyrazol-4-yl)-1H-pyrrole-2-carboxamide]",–,–
10.8,50,–,–,"O=C(Nc1ccc(OC2CCNCC2)nc1)c1cc(C(=O)c2c(Cl)ccc(Cl)c2F)c[nH]1 [Example 109, 4-(3,6-Dichloro-2-fluorobenzoyl)-N-(6-(piperidin-4-yloxy)pyridin-3-yl)-1H-pyrrole-2-carboxamide]",–,IC50 [4]: 92 nM
–,–,7550 ± 300,3200,"Cn1cc(NC(=O)c2cc(C(=O)c3ccccc3F)c[nH]2)cn1 [Example 287, 4-(2-Fluorobenzoyl)-N-(1-methyl-1H-pyrazol-4-yl)-1H-pyrrole-2-carboxamide]",–,–

# From patent US10344017B2, “Pyrrolcarboxamide derivatives for the inhibition of ERK5” (CANCER RESEARCH TECHNOLOGY LIMITED, priority 2014, dated 2019)
